Reference: patent publication US7718406B2, “Substrates for TAFI (A)” (DSM IP Assets B.V., priority 2002, dated 2010)

Key:
TAFIa = target: T1, TAFIa (Homo sapiens, UniProt Q96IY4); assay: Splitting of thiaarginine and thialysine substrates by TAFIa (Ellman's reagent, absorption at 405-412 nm); assay type: biochemical; conditions: substrate final concentration 174 μM; TAFIa final concentration 17 μg/ml; RT, 10 min; pH 7.4
T1 construct: purchased Enzyme Research Laboratory
T1 sequence (Q96IY4 115-423): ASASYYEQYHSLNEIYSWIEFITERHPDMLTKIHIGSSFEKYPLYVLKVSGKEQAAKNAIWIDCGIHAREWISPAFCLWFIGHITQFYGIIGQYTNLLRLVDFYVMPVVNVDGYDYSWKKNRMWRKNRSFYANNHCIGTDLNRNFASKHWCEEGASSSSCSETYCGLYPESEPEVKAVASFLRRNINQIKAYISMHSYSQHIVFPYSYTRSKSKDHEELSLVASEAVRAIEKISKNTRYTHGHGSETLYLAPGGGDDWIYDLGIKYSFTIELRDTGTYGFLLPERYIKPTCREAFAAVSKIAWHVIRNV
Procedure: Principle: TAFIa is determined as shown in Scheme 1. In a first step, the substrate is hydrolyzed by TAFIa in such a way that a thioamino acid (thiaarginine or thialysine) is released. These instable intermediates are rapidly decomposed into 2-mercaptoethylguanidine or 3-mercaptopropylamine, respectively. These mercapto compounds react with Ellman's reagent (5,5′-dithio-bis-(2-nitrobenzoic acid)), thereby releasing the strongly yellow 3-carboxy-4-nitrothiophenol that can be measured using a spectrophotometer at 405-412 nm. The free thiol content measured is directly proportional to the quantity of substrate hydrolyzed by TAFIa and thereby allows a quantitative analysis of the enzyme activity.
Enzyme assay: The enzyme activity is measured at room temperature by using a 10 mM substrate stock solution in DMSO. TAFI of human origin can be obtained in a stock solution of 360 μg/ml from Enzyme Research Laboratory or over blood plasma. Activation of TAFI to TAFIa occurred with thrombin (2.7 U/ml), the activation of which was produced with 30 μg of thrombomodulin. Excessive thrombin activity was eliminated by adding the synthetic inhibitor NAPAP. The measurement was performed on microtiter plates.
The absorption increase at 405-412 nm was recorded for 10 minutes.
in buffer (20 mM HEPES, 5 mM CaCl2, 0.01% Tween 80; pH 7.4) • incubate for 5 min at 25° C. Measurement:
(§1) • measure for 10 min at RT Results: • Splitting of thiaarginine and thialysine substrates (final concentration 174 μM) by TAFIa (final concentration 17 μg/ml) • in brackets the value for carboxypeptidase B • Substances of comparison A and B from Bull. Korean. Chem. Soc. 1998, 19(2), 189-193 • ΔE=Extinction variation at 405 nm

carboxypeptidase B = target: T2, carboxypeptidase B (Homo sapiens, UniProt P15086); assay: Splitting of thiaarginine and thialysine substrates by carboxypeptidase B; assay type: biochemical; conditions: substrate final concentration 174 μM
T2 sequence (P15086 111-417): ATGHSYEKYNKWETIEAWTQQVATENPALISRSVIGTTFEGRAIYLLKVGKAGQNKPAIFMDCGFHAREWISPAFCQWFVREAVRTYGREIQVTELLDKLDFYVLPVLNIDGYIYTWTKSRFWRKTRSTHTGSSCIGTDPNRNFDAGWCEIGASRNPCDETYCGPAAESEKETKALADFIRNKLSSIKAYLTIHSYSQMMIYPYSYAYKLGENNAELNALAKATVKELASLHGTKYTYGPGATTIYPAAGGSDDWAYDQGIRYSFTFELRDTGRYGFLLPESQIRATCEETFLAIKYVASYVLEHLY
Procedure: [drawing 2] have been described as substrates for carboxypeptidase B (Bull. Korean. Chem. Soc. 1998, 19(2), 189-193). […] Detection of CPB by means of compound A is carried out according to the following Scheme 1.
as §1

Row | Compound | ΔE/min (extinction variation at 405 nm), splitting by TAFIa (TAFIa) | ΔE/min (extinction variation at 405 nm), value in brackets for carboxypeptidase B (carboxypeptidase B)
1 | NCCCSC(NC(=O)[C@H](CCCCNC(=O)OCc1ccccc1)NC(=O)c1ccccc1)C(=O)O.O=C(O)C(F)(F)F (stereo partly drawn) [No. 4339, benzoyl-(L)-lysyl-(ε-benzyloxycarbonyl)-α-(D,L)-(3-aminopropylthio)-glycine trifluoracetic acid salt] | 0.055 ΔE/min | 
2 | Boc-F-K(Boc)-G(GUS)-OH × HCl [No. 4298] | 0.043 ΔE/min | (0.034) ΔE/min
3 | Boc-K(Z)-G(α-SPrA)-OH × TFA [No. 4341] | 0.054 ΔE/min | 
4 | Cl.N=C(N)NCCSC(NC(=O)[C@H](CCCCNC(=O)OCc1ccccc1)NC(=O)c1ccccc1)C(=O)O (stereo partly drawn) [No. 4269, benzoyl-(L)-lysyl-(ε-benzyloxycarbonyl)-α-(D,L)-(2-guanidinoethylthio)-glycine hydrochloride salt] | 0.108 ΔE/min | (0.018) ΔE/min
5 | Z-A-K(Boc)-G(GUS)-OH × HCl [No. 4302] | 0.042 ΔE/min | (0.059) ΔE/min
6 | Boc-K(Tos)-G(GUS)-OH × HCl [No. 4273] | 0.014 ΔE/min | (0.048) ΔE/min
7 | Bz-V-G(α-SPrA)-OH × TFA [No. 4336] | 0.053 ΔE/min | 
8 | Boc-K(Z)-G(GUS)-OH × TFA [No. 4275] | 0.041 ΔE/min | (0.028) ΔE/min
9 | Bz-P-K(Boc)-G(GUS)-OH × TFA [No. 4300] | 0.012 ΔE/min | (0.072) ΔE/min
10 | Bz-V-G(GUS)-OH × TFA [No. 4334] | 0.034 ΔE/min | 
